Where two headings read alike, the source gives them in different places.
Assays:
[1] = Chemical stability of PsA in mice plasma (HPLC); format: in vitro ADME; conditions: for Stability 24 h Room Temperature, Accuracy (%) / Stability −20 °C for 2 Weeks, Accuracy (%) / Stability Freeze-Thaw Cycles, Accuracy (%): mice plasma, n = 3; for Stability Freeze-Thaw Cycles, Accuracy (%): three cycles
Experimental: Chromatographic analysis was conducted on a Shimadzu HPLC system (Shimadzu USA Manufacturing Inc., Canby, OR, USA) equipped with an SPD-20A UV detector, 20 µL manual sampler, LC-20AD pump, a degasser, and an automated temperature-controlled column compartment. The UV detector, column oven, and LC-20AD pump were coupled to the Shimadzu system and controlled through Lab Solutions software, v5.111. Stationary phase separation was carried out using a Shimadzu Shim-Pack GWS C18 column (4.6 × 250 mm, 5 µm) equipped with a Zorbax ODS guard column (4.6 × 12.5 mm, 5 µm) by gradient elution with the column temperature maintained at 35 °C. The UV detector wavelength was set and measured at 254 nm. A constant flow rate of 1.0 mL/min and manual injection of 20 µL were employed throughout the HPLC analysis. A mobile phase consisting of aqueous HCOOH (0.1%, v/v, mobile system A) and HPLC grade CH3CN (mobile system B) utilized with a gradient elution of 30–60% B at 0–5 min, 60–85% B at 5–8 min, 85–95% B at 8–11.5 min, and 95% B at 11.5–18 min. The post-run re-equilibration time was 5 min.
(§1) Five µL of the IS ([…]) and 20 µL of 50, 40, 30, 20, 10, 8, and 4 µg/mL PsA standard solutions were combined with 15 µL freshly extracted blank mouse plasma. 300 µL of a 70% EtOAc/30% isopropanol mixture was added and vortexed for 30 s. Following centrifugation at 15,000× g for 10 min, the supernatant was transferred to a 2 mL Eppendorf tube for nitrogen evaporation. The residues were reconstituted in 25 µL HPLC-grade MeOH before being subjected to 30 s sonication followed by centrifugation at 15,000× g for 10 min. Afterwards, the entire sample was immediately injected for RP-HPLC analysis. The mouse plasma samples used in the PK study were subjected to the same extraction method, minus the addition of the PsA standard solutions. After weighing, each mouse organ was reconstituted in 500 µL PBS, then homogenized using the MISONIX Sonicator (Division of QSonica LLC, Newtown, CT, USA). Samples were centrifuged at 15,000× g for 10 min, and the supernatant was collected and transferred to a 2 mL Eppendorf. About 5 µL of IS (25 µL/mL) and 300 µL of a 70% EtOAc/30% isopropanol mixture were added to 100 µL of supernatant and vortexed for 30 s. Following centrifugation at 15,000× g for 10 min, the supernatant was transferred to a 2 mL Eppendorf tube and evaporated under N2. The remains were reconstituted in 40 µL HPLC-grade methanol before being subjected to 30 s sonication followed by centrifugation at 15,000× g for 10 min.
The stability of PsA at room temperature was determined by preparing six separate mouse plasma samples for each concentration. Three samples for each concentration were immediately extracted and injected into the HPLC. The three remaining samples were left on a lab bench protected from light for 24 h before being extracted and injected into the HPLC. The concentrations measured at the 0 and 24 h time points were compared. The stability of PsA after three freeze-thaw cycles was assessed by preparing six separate mouse plasma samples for each concentration. Three samples for each concentration were immediately extracted and injected into the HPLC. The three remaining samples for each concentration were frozen and thawed in a −80 °C freezer three separate times before being extracted and injected into the HPLC. The stability of PsA at −20 °C for 2 weeks was determined by preparing six separate mouse plasma samples for each concentration. Three samples for each concentration were immediately extracted and injected into the HPLC. The three remaining samples were left in a −20 °C freezer for two weeks before being thawed, extracted, and analyzed on the HPLC.

[2] = Pharmacokinetics study in Swiss albino mice; format: in vivo; conditions: for C0 / AUC(0-t): iv, 50 mg/kg
Experimental: as §1
The mean plasma concentration-time curve was plotted using GraphPad Prism software version 8.0.2 (La Jolla, CA, USA). PK parameters were obtained through non-compartmental analysis following intravenous bolus input using PK Solver 2.0 [52].
For the PKs study, twelve male and twelve female healthy Swiss albino mice were randomly selected and placed in 3 groups (n = 4/sex/group). The mice received free access to drinking water and pelleted regular rodent chow (5% fat content, Cat# 7012, Envigo/Teklad, Madison, WI, USA) until the day before experimentation, after which they were fasted for 8 h and allowed only free access to drinking water. Mice were administered PsA formulated in sterile PBS-DMSO (925:75) + 0.2% Tween 80 at a volume not exceeding 100 µL intravenously through recto-orbital injection. Each animal was anaesthetized using Isoflurane (Piramal Critical Care Inc., Bethlehem, PA, USA) for 1–2 min before injection. Disposable sterilized syringes (Becton, Dickinson and Company, Franklin Lakes, NJ, USA) were used for blood collection as well as administration of PsA at a dose of 50 mg/kg and volume, adjusted to the mouse body weight, no greater than 100 µL for animal safety considerations. Blood samples of around 50–70 µL were collected through the tail vein in 600 µL Eppendorf tubes at time points 0.25, 0.75, and 1.5 h for groups 1 and 4, 0.083, 0.5, and 1 h for groups 2 and 5, in addition to 2 and 4 h for groups 3 and 6 following intravenous injection and subjected to immediate centrifugation. From the plasma, 15 µL was transferred into clean 600 µL Eppendorf tubes and immediately subjected to the extraction method listed above and analyzed using HPLC.

[3] = Pharmacokinetics study in Swiss albino mice; format: in vivo; conditions: following oral dosing

CC/C=C\[C@H](O)[C@H](O)C1=C(C)C(=O)[C@]2(O1)C(=O)N[C@@](OC)(C(=O)c1ccccc1)[C@@H]2O [PsA, pseurotin A]
Stability 24 h Room Temperature, Accuracy (%) ([1]; 4 µg/mL): 35.2%
Stability −20 °C for 2 Weeks, Accuracy (%) ([1]; 4 µg/mL): 83.6%
Stability Freeze-Thaw Cycles, Accuracy (%) ([1]; 4 µg/mL): 94.0%
Stability 24 h Room Temperature, Accuracy (%) ([1]; 50 µg/mL): 35.5%
Stability −20 °C for 2 Weeks, Accuracy (%) ([1]; 50 µg/mL): 93.5%
Stability Freeze-Thaw Cycles, Accuracy (%) ([1]; 50 µg/mL): 108.1%
Stability 24 h Room Temperature, Accuracy (%) ([1]; 250 µg/mL): 48.8%
Stability −20 °C for 2 Weeks, Accuracy (%) ([1]; 250 µg/mL): 90.6%
Stability Freeze-Thaw Cycles, Accuracy (%) ([1]; 250 µg/mL): 100.6%
concentration loss ([1]; mouse plasma, room temperature, 24 h): over 50%
plasma detectability over time by HPLC ([2]; IV 50 mg/kg): undetectable by the HPLC method after 2 h
C0 ([2]; both sexes, Swiss albino, mouse, plasma, IV 50 mg/kg, read-out: initial concentration range): 24600 to 34200 ng/mL
AUC(0-t) ([2]; both sexes, Swiss albino, mouse, plasma, single IV 50 mg/kg, 8 h fasting, non-compartmental, mean, read-out: AUC0–t): 19100 ng·h/mL
AUC(0-t) ([2]; both sexes, Swiss albino, mouse, plasma, single IV 50 mg/kg, 8 h fasting, non-compartmental, mean, read-out: AUCt–∞): 20900 ng·h/mL
C0 ([2]; both sexes, Swiss albino, mouse, plasma, single IV 50 mg/kg, 8 h fasting, non-compartmental, mean, read-out: C0, initial plasma concentration): 37300 ng/mL
Vd ([2]; both sexes, Swiss albino, mouse, plasma, IV 50 mg/kg, read-out: average volume of distribution (Vd)): 1.83 L/kg
MRT ([2]; both sexes, Swiss albino, mouse, plasma, single IV 50 mg/kg, 8 h fasting, non-compartmental, mean, read-out: MRT, mean residence time): 44.4 min
half-life ([2]; both sexes, Swiss albino, mouse, plasma, single IV 50 mg/kg, 8 h fasting, non-compartmental, mean, read-out: T1/2, elimination half-life (converted)): 31.8 min
Vd ([2]; both sexes, Swiss albino, mouse, plasma, single IV 50 mg/kg, 8 h fasting, non-compartmental, mean, read-out: Vd, volume of distribution): 1.83 L
AUMC, area under the moment curve ([2]; single IV 50 mg/kg, 8 h fasting, non-compartmental, mean): 15410 ng·h/mL
plasma detectability by validated HPLC method [3]: not detectable in the plasma
